Laboratory results from ChEMBL document CHEMBL4364246, “Synthesis and biological evaluation of 5-aminoethyl benzophenanthridone derivatives as DNA topoisomerase IB inhibitors” (Eur J Med Chem, 2019).

Experiments:
Malme-3M = test: Growth inhibition of human MALME-3M cells incubated for 48 hrs by sulforhodamine B assay; format: functional
MCF7 [1] = test: cells; conditions: Homo sapiens, MCF7, 72 h
IGROV-1 = test: Growth inhibition of human IGROV1 cells incubated for 48 hrs by sulforhodamine B assay; format: functional; conditions: IGROV-1, 48 h
SNB-75 = test: Growth inhibition of human SNB75 cells incubated for 48 hrs by sulforhodamine B assay; format: functional; conditions: SNB-75, 48 h
MCF7 [2] = test: Growth inhibition of human MCF7 cells incubated for 48 hrs by sulforhodamine B assay; format: functional; conditions: MCF7, 48 h
A549 = test: Growth inhibition of human A549/ATCC cells incubated for 48 hrs by sulforhodamine B assay; format: functional; conditions: A549, 48 h
NCI-H226 = test: Growth inhibition of human NCI-H226 cells incubated for 48 hrs by sulforhodamine B assay; format: functional; conditions: NCI-H226, 48 h
HCC 2998 = test: Growth inhibition of human HCC2998 cells incubated for 48 hrs by sulforhodamine B assay; format: functional; conditions: HCC 2998, 48 h
K562 = test: Growth inhibition of human K562 cells incubated for 48 hrs by sulforhodamine B assay; format: functional; conditions: K562, 48 h
[3] = molecular target: T1, DNA topoisomerase 1 (Homo sapiens) (UniProt P11387); test: Inhibition of recombinant TOP1 (unknown origin) using 3'-[32P]-labeled 117 bp DNA oligonucleotide assessed as […] TOP1-mediated DNA cleavage incubated for 20 mins by PAGE analysis relative to 1 uM CPT
T1 sequence (whole entry): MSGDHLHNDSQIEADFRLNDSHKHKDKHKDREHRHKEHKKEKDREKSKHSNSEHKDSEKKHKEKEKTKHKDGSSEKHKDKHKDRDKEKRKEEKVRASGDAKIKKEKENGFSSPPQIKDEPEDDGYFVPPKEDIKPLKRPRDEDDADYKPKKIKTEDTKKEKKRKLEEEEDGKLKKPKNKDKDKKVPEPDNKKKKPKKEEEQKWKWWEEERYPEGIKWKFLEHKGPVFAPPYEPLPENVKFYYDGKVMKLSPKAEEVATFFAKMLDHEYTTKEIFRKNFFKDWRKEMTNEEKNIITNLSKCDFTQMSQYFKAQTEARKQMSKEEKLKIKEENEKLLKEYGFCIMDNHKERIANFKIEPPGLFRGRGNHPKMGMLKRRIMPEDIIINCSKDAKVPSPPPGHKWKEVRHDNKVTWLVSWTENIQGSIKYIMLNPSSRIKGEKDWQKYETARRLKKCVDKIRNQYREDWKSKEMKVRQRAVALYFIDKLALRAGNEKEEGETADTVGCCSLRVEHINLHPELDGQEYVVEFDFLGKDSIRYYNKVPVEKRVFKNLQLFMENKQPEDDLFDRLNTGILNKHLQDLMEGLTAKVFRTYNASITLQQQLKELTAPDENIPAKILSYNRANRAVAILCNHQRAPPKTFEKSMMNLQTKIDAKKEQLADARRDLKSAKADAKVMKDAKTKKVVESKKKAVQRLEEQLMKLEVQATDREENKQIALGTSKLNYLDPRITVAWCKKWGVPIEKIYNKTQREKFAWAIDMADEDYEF

MOLT-4 = test: Growth inhibition of human MOLT4 cells incubated for 48 hrs by sulforhodamine B assay; format: functional; conditions: MOLT-4, 48 h
HCT-116 [4] = test: Growth inhibition of human HCT116 cells incubated for 48 hrs by sulforhodamine B assay; format: functional; conditions: HCT-116, 48 h
SF-539 = test: Growth inhibition of human SF539 cells incubated for 48 hrs by sulforhodamine B assay; format: functional; conditions: SF-539, 48 h
DU-145 = test: Growth inhibition of human DU145 cells incubated for 48 hrs by sulforhodamine B assay; format: functional; conditions: DU-145, 48 h
HCT-15 = test: Growth inhibition of human HCT15 cells incubated for 48 hrs by sulforhodamine B assay; format: functional; conditions: HCT-15, 48 h
T47D = test: Growth inhibition of human T47D cells incubated for 48 hrs by sulforhodamine B assay; format: functional
CAKI-1 = test: Growth inhibition of human Caki1 cells incubated for 48 hrs by sulforhodamine B assay; format: functional; conditions: CAKI-1, 48 h
[5] = molecular target: T1, DNA topoisomerase 1 (Homo sapiens); test: Inhibition of recombinant TOP1 (unknown origin) using 3'-[32P]-labeled 117 bp DNA oligonucleotide assessed as TOP1-mediated DNA cleavage by measuring induction and stabilization of cleavage sites 17, 35 and 79 incubated for 20 mins by PAGE analysis
SR = test: Growth inhibition of human SR cells incubated for 48 hrs by sulforhodamine B assay; format: functional
OVCAR-8 = test: Growth inhibition of human OVCAR8 cells incubated for 48 hrs by sulforhodamine B assay; format: functional; conditions: OVCAR-8, 48 h
HCT-116 [6] = test: Antitumour activity against human HCT116 cells xenografted in athymic nude nu/nu mouse assessed as inhibition in tumor weight at 20 mg/kg administrated daily by caliper method relative to control; format: functional
[7] = Half life in Sprague-Dawley rat at 1 mg/kg, iv measured for 0.083 to 4 hrs by LC-MS/MS analysis; format: ADME, organism-based; conditions: in vivo
[8] = AUC (0 to t) in Sprague-Dawley rat at 1 mg/kg, iv measured for 0.083 to 4 hrs by LC-MS/MS analysis; format: ADME, organism-based; design: time 0.083-4 hr, dose 1 mg/kg, route intravenous; conditions: in vivo
[9] = MRT (0 to infinity) in Sprague-Dawley rat at 1 mg/kg, iv measured for 0.083 to 4 hrs by LC-MS/MS analysis; conditions: in vivo
MCF7 [10] = test: Antitumour activity against human MCF7 cells xenografted in ip dosed athymic nude nu/nu mouse assessed as reduction in tumor volume administrated daily by caliper method; format: functional, organism-based
HCT-116 [11] = test: Antitumour activity against human HCT116 cells xenografted in athymic nude nu/nu mouse assessed as inhibition in tumor weight at 5 mg/kg administrated daily by caliper method relative to control; format: functional
[12] = AUC (0 to t) in Sprague-Dawley rat at 5 mg/kg, ig measured for 0.083 to 4 hrs by LC-MS/MS analysis; format: ADME, organism-based; design: time upper 4 hr, dose 5 mg/kg, time lower 0.083 hr, route […]; conditions: in vivo, po
[13] = Acute toxicity in ip dosed Kunming mouse assessed as mortality administrated for 7 days; format: organism-based; conditions: in vivo, 168 h
HCT-116 [14] = test: Antitumour activity against human HCT116 cells xenografted in ip dosed athymic nude nu/nu mouse assessed as reduction in tumor volume administrated daily by caliper method; format: functional, organism-based
MCF7 [15] = test: Antitumour activity against human MCF7 cells xenografted in athymic nude nu/nu mouse assessed as inhibition in tumor weight at 20 mg/kg administrated daily by caliper method relative to control; format: functional
[16] = molecular target: T1, DNA topoisomerase 1 (Homo sapiens); test: Inhibition of TOP1 in human HCT116 cells assessed as induction of cellular TOP1cc formation incubated for 1 hr by chemiluminescence based assay; format: cell-based
HCT-116 [17] = test: Growth inhibition of human HCT116 cells expressing siTOP1 incubated for 72 hrs by MTT assay; format: functional; conditions: HCT-116, 72 h
HCT-116 [18] = test: Induction of apoptosis in human HCT116 cells assessed as viable cells at 0.5 uM incubated for 24 hrs by FITC and PI staining based flow cytometric analysis (reference value: 99.27%); format: functional; conditions: HCT-116, 24 h, read-out: Activity

Structure (SMILES)	GI50 (Malme-3M) [nM]	GI50 (MCF7 [1]) [nM]	GI50 (IGROV-1) [nM]	GI50 (SNB-75) [nM]	GI50 (MCF7 [2]) [nM]	GI50 (A549) [nM]	GI50 (NCI-H226) [nM]	GI50 (HCC 2998) [nM]	GI50 (K562) [nM]	inhibition [3] [%]	GI50 (MOLT-4) [nM]	GI50 (HCT-116 [4]) [nM]	GI50 (SF-539) [nM]	GI50 (DU-145) [nM]	GI50 (HCT-15) [nM]	GI50 (T47D) [nM]	GI50 (CAKI-1) [nM]	Activity [5]	GI50 (SR) [nM]	GI50 (OVCAR-8) [nM]	also measured
COc1cc2c(=O)n(CCN)c3c4cc5c(cc4ccc3c2cc1OC)OCO5	613	100	500	596	164	584	1340	1020	161	50 to 75	63.3	285	1060	527	420	368	295	Dose-dependent effect	90.7	930	–
CNCCn1c(=O)c2cc(OC)c(OC)cc2c2ccc3cc4c(cc3c21)OCO4	174	90	145	88.5	29.2	94.8	172	156	39.4	75 to 95	23.4	51.5	124	130	116	75.7	64.4	Dose-dependent effect	17.3	132	inhibition in vivo at 20 mg/kg (HCT-116 [6]): 76.9%; half-life [7]: 72.6 min; AUC(0-t) [8]: 47.2 ng·h/mL; MRT inf [9]: 1.46 h; inhibition (MCF7 [10]): Dose-dependent effect; inhibition in vivo at 5 mg/kg (HCT-116 [11]): 49.3%; AUCt [12]: 48.3 ng·h/mL; LD50 [13]: 192 mg/kg; inhibition (HCT-116 [14]): Dose-dependent effect; inhibition in vivo at 20 mg/kg (MCF7 [15]): 71.8%; Activity [16]: Dose-dependent effect; GI50 (HCT-116 [17]): 320 nM; viability at 0.5 µM (HCT-116 [18]): 93.3%
